Legend:
Experiment in all cases: relative viability (nuclei count vs DMSO), 5 days (fraction); higher = more cells survive
Linifanib + Pictilisib = compound: Cc1ccc(F)c(NC(=O)Nc2ccc(-c3cccc4[nH]nc(N)c34)cc2)c1 [Linifanib] + CS(=O)(=O)N1CCN(Cc2cc3nc(-c4cccc5[nH]ncc45)nc(N4CCOCC4)c3s2)CC1 [Pictilisib] (partner 1 µM)
Outline: (§1)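 Lung cancer cell lines in 1536-well plates got either a single drug or a fixed anchor-drug dose together with five library-drug doses (not always all listed) in √10 steps, by pin tool, on the day after seeding. Nuclei were counted after 5 days, and relative viability is the treated-to-vehicle ratio of nuclei counts. Values are medians of duplicate plates.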

Linifanib + Lapatinib = compound: Cc1ccc(F)c(NC(=O)Nc2ccc(-c3cccc4[nH]nc(N)c34)cc2)c1 [Linifanib] + CS(=O)(=O)CCNCc1ccc(-c2ccc3ncnc(Nc4ccc(OCc5cccc(F)c5)c(Cl)c4)c3c2)o1 [Lapatinib] (partner 2 µM)
Outline: as §1

Linifanib + Tozasertib = compound: Cc1ccc(F)c(NC(=O)Nc2ccc(-c3cccc4[nH]nc(N)c34)cc2)c1 [Linifanib] + Cc1cc(Nc2cc(N3CCN(C)CC3)nc(Sc3ccc(NC(=O)C4CC4)cc3)n2)n[nH]1 [Tozasertib] (partner 0.1 µM)
Outline: as §1

Linifanib + Linsitinib = compound: Cc1ccc(F)c(NC(=O)Nc2ccc(-c3cccc4[nH]nc(N)c34)cc2)c1 [Linifanib] + C[C@]1(O)C[C@@H](c2nc(-c3ccc4ccc(-c5ccccc5)nc4c3)c3c(N)nccn32)C1 [Linsitinib] (partner 1 µM)
Outline: as §1

Linifanib + AZD7762 = compound: Cc1ccc(F)c(NC(=O)Nc2ccc(-c3cccc4[nH]nc(N)c34)cc2)c1 [Linifanib] + NC(=O)Nc1cc(-c2cccc(F)c2)sc1C(=O)N[C@H]1CCCNC1 [AZD7762] (partner 0.2 µM)
Outline: as §1

Linifanib + Olaparib = compound: Cc1ccc(F)c(NC(=O)Nc2ccc(-c3cccc4[nH]nc(N)c34)cc2)c1 [Linifanib] + O=C(c1cc(Cc2n[nH]c(=O)c3ccccc23)ccc1F)N1CCN(C(=O)C2CC2)CC1 [Olaparib] (partner 8 µM)
Outline: as §1

Cell Line	relative viability (Linifanib + Pictilisib; first compound 0.03162 µM)	relative viability (Linifanib + Pictilisib; first compound 0.1 µM)	relative viability (Linifanib + Pictilisib; first compound 0.3162 µM)	relative viability (Linifanib + Lapatinib; first compound 0.03162 µM)	relative viability (Linifanib + Lapatinib; first compound 0.1 µM)	relative viability (Linifanib + Lapatinib; first compound 0.3162 µM)	relative viability (Linifanib + Tozasertib; first compound 0.03162 µM)	relative viability (Linifanib + Tozasertib; first compound 0.1 µM)	relative viability (Linifanib + Tozasertib; first compound 0.3162 µM)	relative viability (Linifanib + Linsitinib; first compound 0.03162 µM)	relative viability (Linifanib + Linsitinib; first compound 0.1 µM)	relative viability (Linifanib + Linsitinib; first compound 0.3162 µM)	relative viability (Linifanib + AZD7762; first compound 0.03162 µM)	relative viability (Linifanib + AZD7762; first compound 0.1 µM)	relative viability (Linifanib + AZD7762; first compound 0.3162 µM)	relative viability (Linifanib + Olaparib; first compound 0.03162 µM)	relative viability (Linifanib + Olaparib; first compound 0.1 µM)	relative viability (Linifanib + Olaparib; first compound 0.3162 µM)
PC-14	0.617	0.823	0.682	0.32	0.436	0.305	0.499	0.502	0.552	1.01	1.07	0.922	0.377	0.491	0.262	0.353	0.231	0.256
NCI-H647	0.313	0.512	0.417	1.22	1.29	1.01	0.188	0.325	0.352	1.13	1.06	1.07	0.435	0.557	0.389	0.678	0.68	0.54
LCLC-103H	0.71	0.596	0.693				0.482	0.461	0.423	1.13	1.07	0.978	0.892	0.721	0.792	0.752	0.78	0.732
NCI-H2228	0.415	0.64	0.386	0.998	1.3	0.922	0.206	0.233	0.295	0.648	0.705	0.5				0.58	1.08	0.621
NCI-H2085	0.426	0.711	0.484	0.809	0.83	0.734	0.793	0.772	0.843	0.895	0.913	0.835	1.08	0.943	0.974	0.727	0.803	0.739
H3255	0.509	0.507	0.488	0.246	0.508	0.242	0.767	0.662	0.601	0.976	1.14	0.845	0.868	0.925	0.853	0.619	0.567	0.574
LK-2	0.495	0.537	0.489	0.931	1.06	0.915	0.155	0.177	0.2	0.516	0.502	0.536	0.618	0.504	0.376	0.694	0.759	0.732
NCI-H441	0.493	0.519	0.479				0.48	0.654	0.678	0.528	0.731	0.547	1.03	1.23	0.958	0.673	0.5	0.433
SW 900							0.392	0.614	0.692				0.523	0.656	0.533	0.909	1.04	0.75
PC-3 [JPC-3]	0.743	0.786	0.687	0.482	0.413	0.496	0.893	0.979	0.811	0.971	0.903	1	0.796	0.856	0.776	1.09	1.14	1.13
NCI-H2342							0.544	0.492	0.529				0.506	0.506	0.625	0.512	0.481	0.381
NCI-H1437	0.529	0.495	0.471	0.957	0.801	0.77	0.375	0.444	0.389	1.03	1.14	0.814	1.01	1.22	1.13	0.631	0.653	0.603
HCC-827	0.898	0.96	0.933	0.19	0.173	0.191	0.442	0.419	0.384	0.992	0.999	0.996	0.204	0.231	0.275	0.651	0.711	0.654
HCC-44	0.605	0.674	0.595	1.04	1	0.989	0.558	1.05	0.812	0.741	0.71	0.664	1.09	0.914	1.04	1.02	0.916	0.952
NCI-H2126	0.48	0.507	0.457	0.792	0.788	0.779	0.847	0.998	0.806	0.696	0.731	0.753	1.02	1.06	0.983	0.986	0.912	0.9
NCI-H596	0.378	0.375	0.446	1.05	1.08	1.01	0.798	0.815	0.9	1.08	0.993	1.06	1.16	1.28	1.15	0.633	0.615	0.724
NCI-H460	0.397	0.448	0.317	1.1	1.11	0.697	0.139	0.436	0.475	0.714	1.05	0.773	0.614	0.555	0.562	0.539	0.464	0.471

Cell Line	relative viability (Linifanib + Pictilisib; first compound 0.03162 µM)	relative viability (Linifanib + Pictilisib; first compound 0.1 µM)	relative viability (Linifanib + Pictilisib; first compound 0.3162 µM)	relative viability (Linifanib + Lapatinib; first compound 0.03162 µM)	relative viability (Linifanib + Lapatinib; first compound 0.1 µM)	relative viability (Linifanib + Lapatinib; first compound 0.3162 µM)	relative viability (Linifanib + Tozasertib; first compound 0.03162 µM)	relative viability (Linifanib + Tozasertib; first compound 0.1 µM)	relative viability (Linifanib + Tozasertib; first compound 0.3162 µM)	relative viability (Linifanib + Linsitinib; first compound 0.03162 µM)	relative viability (Linifanib + Linsitinib; first compound 0.1 µM)	relative viability (Linifanib + Linsitinib; first compound 0.3162 µM)	relative viability (Linifanib + AZD7762; first compound 0.03162 µM)	relative viability (Linifanib + AZD7762; first compound 0.1 µM)	relative viability (Linifanib + AZD7762; first compound 0.3162 µM)	relative viability (Linifanib + Olaparib; first compound 0.03162 µM)	relative viability (Linifanib + Olaparib; first compound 0.1 µM)	relative viability (Linifanib + Olaparib; first compound 0.3162 µM)
NCI-H1792	0.213	0.311	0.333	0.961	0.973	0.891				0.386	0.522	0.535	0.789	0.757	0.588	0.337	0.532	0.375
RERF-LC-KJ	0.564	0.6	0.484	0.885	0.891	0.868	0.46	0.531	0.578	0.888	0.907	0.827	1.03	1.01	0.938	0.875	1.08	0.892
COR-L23	0.754	0.717	0.686	1.09	0.905	0.921	0.181	0.228	0.141	0.933	1.01	0.815				0.337	0.384	0.302
UMC-11	0.859	0.865	0.819	1	1.1	1.06	0.214	0.201	0.222	0.921	1.06	0.911				0.388	0.485	0.374
SW 1573	0.43	0.517	0.417	1.27	1.27	1.15	0.195	0.193	0.189	0.853	0.845	0.743				0.463	0.498	0.505
NCI-H1395	0.676	0.715	0.525	0.986	0.982	1.14	0.691	0.725	0.729	1.06	1.08	1.09	0.39	0.431	0.395	0.462	0.463	0.461
SK-MES-1	0.369	0.338	0.398	0.456	0.534	0.384	0.882	1.06	0.819	1.04	1.12	1.03				0.636	0.795	0.71
ChaGo-K-1	0.697	0.783	0.741				0.239	0.245	0.228				0.881	0.881	0.925	0.456	0.445	0.448
NCI-H661	0.424	0.487	0.38	0.483	0.449	0.42	0.35	0.35	0.36	0.505	0.676	0.467				0.771	0.783	0.7
SK-LU-1	0.529	0.602	0.542	0.84	1.12	0.738	0.317	0.331	0.323	0.932	1.02	0.981				0.467	0.558	0.456
COR-L 105	0.422	0.437	0.388	0.388	0.381	0.333	0.334	0.321	0.336	0.87	0.978	0.715				0.66	0.584	0.754
NCI-H2009	0.873	0.973	0.835	1.23	0.928	0.941	0.718	0.834	0.71	1.15	1.19	1.13				0.675	0.705	0.671
NCI-H1650	0.661	0.671	0.5	0.797	0.9	0.721	0.389	0.475	0.377							0.78	0.971	0.753
NCI-H2023	0.221	0.297	0.263	0.801	1.06	0.733	0.322	0.398	0.293	0.681	0.676	0.652				0.518	0.615	0.46
NCI-H2170	0.297	0.332	0.304	0.255	0.277	0.279	0.706	0.716	0.712				0.831	0.954	0.843	0.612	0.701	0.566
NCI-H520	0.29	0.304	0.315	1	1.03	0.895	0.382	0.456	0.418	1.07	1	0.811				0.286	0.32	0.36
